Measured values taken from PubChem BioAssay (NCI).
Where “and” joins values, the source holds several entries; their conditions need not be identical. Equal values may be shown once.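 Values below derive from 48-hour exposures of cells grown in 96-well plates, with endpoints linearly interpolated between the two concentrations bracketing the appropriate inhibition level. Abbreviation: GI50, concentration required for 50% inhibition of growth. TGI: concentration producing complete growth inhibition.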

How the values were obtained:
Experiment in all cases: DTP human tumour cell line panel, 48 h
A549 NSCLC = tested on: A549 NSCLC
U251 CNS = tested on: U251 CNS
A498 renal = tested on: A498 renal
HCT-15 colon = tested on: HCT-15 colon
RXF 393 renal = tested on: RXF 393 renal
SF-539 CNS = tested on: SF-539 CNS
UO-31 renal = tested on: UO-31 renal
M14 melanoma = tested on: M14 melanoma
SK-MEL-2 melanoma = tested on: SK-MEL-2 melanoma
MCF7 breast = tested on: MCF7 breast

Row | Compound | TGI (A549 NSCLC) | TGI (U251 CNS) [µM] | TGI (A498 renal) [µM] | TGI (HCT-15 colon) [µM] | TGI (RXF 393 renal) [µM] | TGI (SF-539 CNS) [µM] | TGI (UO-31 renal) [µM] | TGI (M14 melanoma) [µM] | TGI (SK-MEL-2 melanoma) [µM] | GI50 (A549 NSCLC) [µM] | TGI (MCF7 breast) [µM] | GI50 (U251 CNS) [µM] | GI50 (HCT-15 colon) [µM] | GI50 (RXF 393 renal) [µM] | GI50 (SF-539 CNS) [µM] | GI50 (UO-31 renal) [µM] | GI50 (M14 melanoma) [µM] | GI50 (SK-MEL-2 melanoma) [µM] | GI50 (A498 renal) [µM] | GI50 (MCF7 breast) [µM]
1 | Cc1ccc(/C=N/NS(=O)(=O)c2ccccc2)cc1C | > 100 µM | > 100 | > 100 | > 100 | > 100 | > 100 | > 100 | > 100 | > 100 | – | – | – | – | – | – | – | – | – | – | –
2 | CC(C)CCCCCCCCCCCCC(=O)NCC(=O)NC1C(C)OC(Nc2ncnc3nc[nH]c23)C(O)C1O (stereo not drawn) | 0.472 µM and 0.19 µM | 0.038 | – | 3.84 | 0.0369 | – | – | – | – | 0.00324 | 0.264 | 0.000334 | 0.573 | 0.00101 | 0.011 | 0.00201 | 0.00252 | 0.0183 | – | –
3 | CC[O-].CC[O-].O=C([CH-]C(=O)c1ccccc1)CCCCCCC(=O)[CH-]C(=O)c1ccccc1.[Ti+4] | > 100 µM | > 100 | > 100 | > 100 | > 100 | > 100 | > 100 | > 100 | > 100 | > 100 | – | > 100 | > 100 | > 100 | > 100 | > 100 | > 100 | > 100 | > 100 | –
4 | O=[N+]([O-])c1cc(I)cc(/C=N/NS(=O)(=O)c2ccc(Cl)cc2)c1O | > 100 µM | 40.3 | 58.8 | 38.7 | 45.4 | 51.5 | 36.8 | 58.3 | 42.7 | – | – | – | – | – | – | – | – | – | – | –
5 | CC(=O)NCc1c(C(N)=O)ncn1Cc1ccccc1 | > 100 µM | > 100 | > 100 | > 100 | > 100 | > 100 | – | > 100 | – | – | – | – | – | – | – | – | – | – | – | –
6 | C1C[OH+]CCNCC[OH+]CC[OH+]CCN1.N.[Cl-].[Pt+4] | > 100 µM | > 100 | > 100 | > 100 | 90.3 | > 100 | 80 | > 100 | > 100 | 51.3 | – | > 100 | 40.4 | 22.8 | > 100 | 20.5 | 54.2 | 47.2 | 64.6 | –
7 | COc1cc2c(c(OC)c1OC)-c1c(c3ccc([N+](=O)[O-])cc3c(=O)n1CCCBr)C2=O | > 100 µM | > 100 | > 100 | – | > 100 | 17.9 | 72.5 | 59.1 | > 100 | 62.8 | 0.439 | 24.4 | – | 24.4 | 4.5 | 14.4 | 21 | > 100 | > 100 | 0.0551
8 | COc1ccc2nc3c(cc2c1)C(=O)CC(c1ccccc1)C3 (stereo not drawn) | > 100 µM | > 100 | 1.18 | > 100 | – | 5.15 | > 100 | – | > 100 | 2.05 | > 100 | 5.81 | 2.19 | – | 1.22 | 0.589 | – | 0.771 | 0.215 | 3.54
